In test [1] the test system is SDAs as compared to NSDAs. Kind of test: Binding activity of peptides line-blotted onto PVDF to SDAs as compared to NSDAs. Details: species or system human; key to Activity: showed a substantially higher binding activity to SDAs as compared to their binding to NSDAs (indicated as YES in the table); No: showed no significant differences in their binding to samples from schizophrenic and non-schizophrenic individuals (designed as no in the table). The note with it: for Activity: binding to SDAs versus NSDAs. How it is done:
(§1) 1. Platelets and Anti-Platelet Autoantibodies Venous blood (20 ml) was drawn with heparin as anticoagulant from patients and control subjects. Platelet rich plasma (PRP) was obtained by centrifugation (100 g for 20 mins) at room temperature. Plasma free platelets were obtained by washing them three times with phosphate buffered saline (PBS) supplemented with 10 ml mM EDTA as anticoagulant (4000 g; 15 mins; 4° C.). For the isolation of anti-platelet antibodies, the platelets were incubated with 0.1 M glycine/10 mM EDTA, pH 2.8, for 10 min. at room temperature and then centrifuged (4000 g; 15 min; 4° C.). The supernatant containing the anti-platelet antibodies, was neutralized with saturated Na2PO4 solution and stored at −20 until use. 2. Preparative Isoelectric Focusing
(§2) The fractions were analyzed for immuno-reactivity by polyacrylamide (10%) gel electrophoresis, blotting the proteins onto PVDF membranes and probing the membrane with 1 ml auto-antibodies in 50 ml incubation buffer. Anti-human Fc conjugated to horseradish peroxidase (goat) from SIGMA (1:500 dilution) and Fast-DAB™ (SIGMA) or 4-Chloro-naphthol (SIGMA) were used as color reagent in order to detect bound human anti-platelet antibodies.
(§3) Various peptides were synthesized on Abimed 522 at a 10 micromol scale by Eurosequence b.v. Peptides were routinely dissolved in 1 ml water/DMF/DMSO (1:1:1;v/v/v). Peptides were line-blotted onto PVDF membranes and tested for immuno-reactivity as described above.
Based on the sequence of the epitope identified in the digested proteins, a number of peptides were synthesized by the method described in 1.8 above. The synthesized peptides were then evaluated for their binding activity to SDAs as compared to NSDAs as described above.

For test [2], the system named is SDAs (schizophrenic derived antibodies). The experiment in a line: Reactivity of proteins to SDAs (platelet autoantibodies from schizophrenic patients), blot with anti-human Fc-HRP. Type of test: binding. The note with it: number of SDA samples that reacted positively with the enzyme, of 8 patients. How it is done:
as §1, §2
(§4) Every fifth fraction (0.1 ml) was dot blotted onto PVDF membranes using the DotBlot device (96 wells) from BioRad. Immuno-reactive fractions were then detected as described above (1.3)
(§5) The binding activity of the above two enzymes was then tested by reacting them with SDAs (prepared from samples obtained from schizophrenic patients) and to NSDA (prepared from control non-schizophrenic individuals).

Test [3] relates to NSDAs (non-schizophrenic derived antibodies). The experiment in a line: Reactivity of proteins to NSDAs (platelet autoantibodies from control non-schizophrenic individuals), blot with anti-human Fc-HRP. Type of test: binding. The note with it: number of NSDA samples that reacted positively with the enzyme, of 8 controls. As for the experimental part:
as §1, §2, §4, §5

Test [4] has as its system PAAs obtained from non-schizophrenic individuals. Kind of test: Binding of peptide to isolated PAAs from non-schizophrenic individuals. The note with it: isolated PAAs from eight different non-schizophrenic individuals, FIG. 1B. Set-up: species or system human. As for the experimental part: as §1, §2
(§6) Various peptides were synthesized on Abimed 522 at a 10 micromol scale by Eurosequence b.v. Peptides were routinely dissolved in 1 ml water/DMF/DMSO (1:1:1;v/v/v). […]

In test [5] the test system is PAAs obtained from schizophrenic patients (SDA). The experiment in a line: Binding of peptide to isolated PAAs from schizophrenic patients. Set-up: species or system human. As for the experimental part: as §1, §2, §6
The test system of test [6] is NSDA in plasma samples from non-schizophrenic individuals. The experiment in a line: Binding of peptide to plasma samples from non-schizophrenic individuals. Set-up: species or system human. The note with it: plasma samples of fifteen non-schizophrenic individuals, FIG. 2B. How it is done:
as §2, §3
(§7) The capability of Peptide 14 (SEQ ID NO: 3) to bind SDA in plasma samples obtained from schizophrenic patients was then tested. […] Peptide 14 (SEQ ID NO: 10) was used as a negative control.

Test [7] concerns SDA in plasma samples obtained from schizophrenic patients. The experiment in a line: Binding of peptide to plasma samples from schizophrenic patients. The note with it: plasma samples of five schizophrenic patients, FIG. 2A. Details: species or system human. As for the experimental part:
as §2, §3, §7

As for “2 (SGETEDTFIADLVVGLCTGQIKTGAPCR; being the immunologically active epitope) [compound 2]”, in test [1], the Activity entry is recorded as “YES”.
On to “3 (LVVGLCTCQIKTGPAC; peptide capable of binding antibodies that are found in elevated levels in body fluids of schizophrenic patients.) [compound 3]”, for which, in test [1], the Activity result is “YES”.
For “4 (IADLVVGLCTGQIKTGAPCR; peptide capable of binding antibodies that are found in elevated levels in body fluids of schizophrenic patients.) [compound 4]”, in test [1], the Activity result is given as “YES”.
Same read-out and setting: under “5 (ADLVVGLCTGQIKTGAPCR; peptide capable of binding antibodies that are found in elevated levels in body fluids of schizophrenic patients.) [compound 5]” stands “YES”; under “6 (DLVVGLCTGQIKTGAPCR; peptide capable of binding antibodies that are found in elevated levels in body fluids of schizophrenic patients.) [compound 6]”, “YES”.
“7 (LVVGLCTGQIKTGAPCR; peptide capable of binding antibodies that are found in elevated levels in body fluids of schizophrenic patients.) [compound 7]”: the Activity entry in test [1] is listed as “YES”.
The same measure, in the same setting: to “8 (LVVGLCTGQIKTGPACR; peptide capable of binding antibodies that are found in elevated levels in body fluids of schizophrenic patients.) [compound 8]” belongs “YES”; to “9 (LVVGLCTPQIKTGPACR; peptide capable of binding antibodies that are found in elevated levels in body fluids of schizophrenic patients.) [compound 9]”, “YES”.
In the case of “10 (SGETEDTFIADLVVGLCTGQ; peptide capable of binding antibodies that are found in elevated levels in body fluids of schizophrenic patients.) [compound 10]”, the Activity entry in test [1] was “No”.
Same read-out and setting: to “11 (VVGLCTGQIKTGAPCR; peptide capable of binding antibodies that are found in elevated levels in body fluids of schizophrenic patients.) [compound 11]” belongs “No”; to “12 (CTGQIKTGAPCR; peptide capable of binding antibodies that are found in elevated levels in body fluids of schizophrenic patients.) [compound 12]”, “No”.
As for “13 (LVVGLCTGQIKTGAPC; peptide capable of binding antibodies that are found in elevated levels in body fluids of schizophrenic patients.) [compound 13]”, the Activity entry in test [1] is reported as “No”.
Same read-out and setting: under “15 (LVVGLCTGQIKTGPAC; peptide capable of binding antibodies that are found in elevated levels in body fluids of schizophrenic patients.) [compound 15]” stands “No”.
As for “G-3-P-Dehydrogenase from chicken: glyceraldehyde-3-phosphate dehydrogenase (G3PD) enzyme from chicken”, the “Patients (n = 8) Positive” value in test [2] was 7/8. Further, the “Controls (n = 8) Positive” value in test [3] is reported as 2/8.
Taken in the same sequence, the figures for “G-3-P-Dehydrogenase from human: glyceraldehyde-3-phosphate dehydrogenase (G3PD) enzyme from human” were 7/8 and 1/8.
Taken in the same sequence, the figures for “G-3-P-Dehydrogenase from pig: glyceraldehyde-3-phosphate dehydrogenase (G3PD) enzyme from pig” were 8/8 and 1/8.
For the substance “LVVGLCTCQIKTGPAC (peptide capable of binding antibodies that are found in elevated levels in body fluids of schizophrenic patients.) [SEQ ID NO: 3]”, the “binding to PAAs from non-schizophrenic individuals” value in test [4] is “did not bind”. Moreover, the “PAAs from schizophrenic patients positively bound” value in test [5] (isolated PAAs from eight different schizophrenic patients, FIG. 1A) is on record as “seven out of eight”. Also, the “binding activity to SDA, dimer form versus non-dimer form” value in test [5] (ring via two cysteins and dimer via free cystein after overnight in water/DMF/DMSO) was “the dimer form of the peptide was much more active in binding SDAs than the non-dimer form”. Also, the “plasma samples of non-schizophrenic individuals whose NSDA was not bound” value in test [6] is “fourteen out of fifteen”. Besides, in test [7], the “SDA in plasma of schizophrenic patients positively bound” value is “four out of five”. In addition, the “ranking of binding to antibodies found in high levels in schizophrenic patients” value in test [1] (among the synthesized peptides) is recorded as “most capable of binding”. The Activity entry in test [1] is “No”.
Consider “SGETEDTFIADLVVGLCTGQIKTGAPCR (being the immunologically active epitope) [SEQ ID NO: 2]”, for which, in test [1] (binding SDAs to a higher extent than NSDAs, amino acids 372-399), the “immunological activity of peptide from enzymatic digest of Enolase” value is recorded as “immunologically active”.

For the origin of these results see patent US7098304B1, “Assay for the diagnosis of schizophrenia based on a new peptide” (Yeda Research and Development Co. Ltd., priority 1998, dated 2006).
